From patent publication US20100298141A1, “SUBSTITUTED PYRIDINE N-OXIDE HERBICIDES” (E. I. DU PONT DE NEMOURS AND COMPANY, priority 2007, published 2010)

Key:
crabgrass = experiment: Test A pre-/postemergence greenhouse test; format: in vivo, Digitaria sanguinalis; conditions: for Plant response rating, Crabgrass, Large: 0 to 100 scale where 0 is no effect and 100 is complete control; for Crabgrass, Large plant response rating: 0 to 100 scale
Summary of the method: (§1)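 Two application timings were run side by side in the greenhouse. Before emergence, compound went onto the soil surface of loam–sand pots as a directed spray; after emergence, plants at 2–10 cm and the one- to two-leaf stage were treated. Visual injury versus controls was rated at approximately day ten.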

giant foxtail = experiment: Test A pre-/postemergence greenhouse test; format: in vivo, Setaria faberi; conditions: for Plant response rating, Foxtail, Giant: 0 to 100 scale where 0 is no effect and 100 is complete control; for Foxtail, Giant plant response rating: 0 to 100 scale
Summary of the method: as §1

morningglory [1] = experiment: Test A pre-/postemergence greenhouse test; format: in vivo, Ipomoea spp.; conditions: for Plant response rating, Morningglory: 0 to 100 scale where 0 is no effect and 100 is complete control; for Morningglory plant response rating: 0 to 100 scale
Summary of the method: as §1

wheat [2] = experiment: Test A pre-/postemergence greenhouse test; format: in vivo, Triticum aestivum; conditions: for Plant response rating, Wheat: 0 to 100 scale where 0 is no effect and 100 is complete control; for Wheat plant response rating: 0 to 100 scale
Summary of the method: as §1

corn = experiment: Test A pre-/postemergence greenhouse test; format: in vivo, Zea mays; conditions: for Plant response rating, Corn: 0 to 100 scale where 0 is no effect and 100 is complete control; for Corn plant response rating: 0 to 100 scale
Summary of the method: as §1

Italian ryegrass = experiment: Test C pre-/postemergence test; format: in vivo, Lolium multiflorum
Summary of the method: (§2)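 Test chemicals were formulated with surfactant in a non-phytotoxic solvent and sprayed both on freshly planted seeds (preemergence) and on 1- to 4-leaf plants of 2–18 cm (postemergence). Flooded-paddy pots received compound directly into 3 cm of standing water, maintained for the test.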

wheat [3] = experiment: Test C pre-/postemergence test; format: in vivo, Triticum aestivum
Summary of the method: as §2

bermudagrass = experiment: Test C pre-/postemergence test; format: in vivo, Cynodon dactylon
Summary of the method: as §2

Goosegrass = experiment: Test C pre-/postemergence test; format: in vivo, Eleusin indica
Summary of the method: as §2

morningglory [4] = experiment: Test C pre-/postemergence test; format: in vivo, Ipomoea coccinea
Summary of the method: as §2

yellow nutsedge = experiment: Test C pre-/postemergence test; format: in vivo, Cyperus esculentus
Summary of the method: as §2

pigweed = experiment: Test C pre-/postemergence test; format: in vivo, Amaranthus retroflexus
Summary of the method: as §2

soybean = experiment: Test C pre-/postemergence test; format: in vivo, Glycine max
Summary of the method: as §2

[5] = tested on: common (oilseed) sunflower; experiment: Test C pre-/postemergence test; format: in vivo, Helianthus annuus
Summary of the method: as §2

umbrella sedge = experiment: Test C flooded paddy test; format: in vivo, Cyperus difformis; conditions: Flood
Summary of the method: (§3)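 Greenhouse pots flooded to 3 cm above soil at time of treatment received compound via the water, which stayed at that level.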

barnyardgrass = experiment: Test C flooded paddy test; format: in vivo, Echinochloa crus-galli; conditions: Flood
Summary of the method: as §3

[6] = Postemergence, 500 g ai/ha, 0 is no effect, 100 is complete control
[7] = Preemergence, 125 g ai/ha, 0 no effect, 100 complete control
[8] = 62 g ai/ha, Preemergence, scale 0 to 100
[9] = 125 g ai/ha, preemergence, scale 0 (no effect) to 100 (complete control)
[10] = Postemergence, 125 g ai/ha, scale 0 to 100, 0 no effect, 100 complete control
[11] = Postemergence, 250 g ai/ha, scale 0 to 100, 0 no effect, 100 complete control
[12] = Preemergence, 31 g ai/ha, scale 0 to 100 (0 no effect, 100 complete control)
[13] = preemergence, 250 g ai/ha, scale 0 (no effect) to 100 (complete control)
[14] = Postemergence, 62 g ai/ha, scale 0 to 100, 0 no effect, 100 complete control
[15] = 62 g ai/ha, scale 0 to 100 (0 no effect, 100 complete control)
[16] = 250 g ai/ha, scale 0 to 100, 0 no effect, 100 complete control, 13 to 15 days

CCn1nc(C(F)(F)F)c(C[S+]([O-])c2cccc[n+]2[O-])c1OCC(F)(F)F (racemic) [Compound 65]
Plant response rating, Crabgrass, Large (crabgrass; Postemergence, 125 g ai/ha): 80 | Crabgrass, Large plant response rating (crabgrass; [6]): 90 | Crabgrass, Large plant response rating (crabgrass; [7]): 90 | Plant response rating, Crabgrass, Large (crabgrass; Preemergence, 500 g ai/ha): 100 | Plant response rating, Foxtail, Giant (giant foxtail; Postemergence, 125 g ai/ha): 90 | Foxtail, Giant plant response rating (giant foxtail; [6]): 100 | Foxtail, Giant plant response rating (giant foxtail; [7]): 100 | Plant response rating, Foxtail, Giant (giant foxtail; Preemergence, 500 g ai/ha): 100 | Plant response rating, Morningglory (morningglory [1]; Postemergence, 125 g ai/ha): 60 | Morningglory plant response rating (morningglory [1]; [6]): 90 | Morningglory plant response rating (morningglory [1]; [7]): 60 | Plant response rating, Morningglory (morningglory [1]; Preemergence, 500 g ai/ha): 100 | Plant response rating, Wheat (wheat [2]; Postemergence, 125 g ai/ha): 60 | Wheat plant response rating (wheat [2]; [6]): 70 | Wheat plant response rating (wheat [2]; [7]): 80 | Plant response rating, Wheat (wheat [2]; Preemergence, 500 g ai/ha): 100 | Plant response rating, Corn (corn; Postemergence, 125 g ai/ha): 70 | Corn plant response rating (corn; [6]): 80 | Corn plant response rating (corn; [7]): 40 | Plant response rating, Corn (corn; Preemergence, 500 g ai/ha): 80 | Ryegrass, Italian plant response rating (Italian ryegrass; [8]): 100 | Ryegrass, Italian plant response rating (Italian ryegrass; [9]): 100 | Plant response rating (0 to 100), Ryegrass, Italian (Italian ryegrass; Postemergence, 31 g ai/ha): 0 | Plant response rating (0 to 100), Ryegrass, Italian (Italian ryegrass; Postemergence, 62 g ai/ha): 0 | Plant response rating, Ryegrass, Italian (Italian ryegrass; [10]): 90 | Plant response rating, Ryegrass, Italian (Italian ryegrass; [11]): 95 | Plant response rating, Ryegrass, Italian (Italian ryegrass; [12]): 50 | Ryegrass, Italian plant response rating (Italian ryegrass; [13]): 100 | Wheat plant response rating (wheat [3]; [8]): 80 | Wheat plant response rating (wheat [3]; [9]): 100 | Plant response rating (0 to 100), Wheat (wheat [3]; Postemergence, 31 g ai/ha): 0 | Plant response rating (0 to 100), Wheat (wheat [3]; Postemergence, 62 g ai/ha): 0 | Plant response rating, Wheat (wheat [3]; [10]): 25 | Plant response rating, Wheat (wheat [3]; [11]): 30 | Plant response rating, Wheat (wheat [3]; [12]): 50 | Wheat plant response rating (wheat [3]; [13]): 100 | Bermudagrass plant response rating (bermudagrass; 62 g ai/ha, Preemergence, scale 0 to 100 (0 no effect, 100 complete control)): 100 | Bermudagrass plant response rating (bermudagrass; [9]): 100 | Plant response rating (0 to 100), Bermudagrass (bermudagrass; Postemergence, 31 g ai/ha): 0 | Plant response rating, Bermudagrass (bermudagrass; [14]): 0 | Plant response rating, Bermudagrass (bermudagrass; [10]): 70 | Plant response rating, Bermudagrass (bermudagrass; [11]): 90 | Plant response rating, Bermudagrass (bermudagrass; [12]): 100 | Bermudagrass plant response rating (bermudagrass; [13]): 100 | Goosegrass plant response rating (Goosegrass; [8]): 100 | Goosegrass plant response rating (Goosegrass; [9]): 100 | Plant response rating (0 to 100), Goosegrass (Goosegrass; Postemergence, 31 g ai/ha): 0 | Plant response rating, Goosegrass (Goosegrass; [14]): 0 | Plant response rating, Goosegrass (Goosegrass; [10]): 0 | Plant response rating, Goosegrass (Goosegrass; [11]): 70 | Plant response rating, Goosegrass (Goosegrass; [12]): 100 | Goosegrass plant response rating (Goosegrass; [13]): 100 | Morningglory plant response rating (morningglory [4]; [8]): 0 | Plant response rating (0 to 100), Morningglory (morningglory [4]; Postemergence, 31 g ai/ha): 0 | Plant response rating, Morningglory (morningglory [4]; [14]): 0 | Plant response rating, Morningglory (morningglory [4]; [10]): 0 | Plant response rating, Morningglory (morningglory [4]; [11]): 0 | Plant response rating, Morningglory (morningglory [4]; [12]): 0 | Morningglory plant response rating (morningglory [4]; [13]): 75 | Nutsedge, Yellow plant response rating (yellow nutsedge; [8]): 40 | Nutsedge, Yellow plant response rating (yellow nutsedge; [9]): 50 | Plant response rating (0 to 100), Nutsedge, Yellow (yellow nutsedge; Postemergence, 31 g ai/ha): 0 | Plant response rating, Nutsedge, Yellow (yellow nutsedge; [14]): 0 | Plant response rating, Nutsedge, Yellow (yellow nutsedge; [10]): 0 | Plant response rating, Nutsedge, Yellow (yellow nutsedge; [11]): 0 | Plant response rating, Nutsedge, Yellow (yellow nutsedge; [12]): 0 | Nutsedge, Yellow plant response rating (yellow nutsedge; [13]): 60 | Pigweed plant response rating (pigweed; [8]): 85 | Plant response rating (0 to 100), Pigweed (pigweed; Postemergence, 31 g ai/ha): 0 | Plant response rating (0 to 100), Pigweed (pigweed; Postemergence, 62 g ai/ha): 0 | Plant response rating, Pigweed (pigweed; [10]): 0 | Plant response rating, Pigweed (pigweed; [11]): 5 | Plant response rating, Pigweed (pigweed; [12]): 85 | Pigweed plant response rating (pigweed; [13]): 100 | Plant response rating (0 to 100), Soybean (soybean; Postemergence, 31 g ai/ha): 20 | Plant response rating (0 to 100), Soybean (soybean; Postemergence, 62 g ai/ha): 50 | Plant response rating, Soybean (soybean; [10]): 60 | Plant response rating, Soybean (soybean; [11]): 90 | Plant response rating, Soybean (soybean; [12]): 5 | Sunflower plant response rating [5, 8]: 50 | Sunflower plant response rating [5, 9]: 100 | Plant response rating, Sunflower [5, 12]: 45 | Plant response rating, Sedge, Umbrella (umbrella sedge; [15]): 60 | Plant response rating, Sedge, Umbrella (umbrella sedge; [16]): 100 | Plant response rating, Barnyardgrass (barnyardgrass; [15]): 55 | Plant response rating, Barnyardgrass (barnyardgrass; [16]): 85
